From patent US20200031848A1, “AR-V7 INHIBITORS” (Hoffmann-La Roche Inc., priority 2016, published 2020)

Tests used:
[1] = target: T1, AR transcriptional activity (Homo sapiens, UniProt P10275, T878A); experiment: eGFP cellular AR transcription assay; format: cell-based; conditions: LNCaP eGFP cell line
T1 construct: The LNCaP eGFP cell line was stably transfected with an androgen-responsive probasin-derived promoter fused to an eGFP reporter; endogenous in cells; host or cells: LNCaP eGFP (LN-ARR2PB-eGFP) human prostate cancer cells
T1 sequence (P10275 1-920 T878A): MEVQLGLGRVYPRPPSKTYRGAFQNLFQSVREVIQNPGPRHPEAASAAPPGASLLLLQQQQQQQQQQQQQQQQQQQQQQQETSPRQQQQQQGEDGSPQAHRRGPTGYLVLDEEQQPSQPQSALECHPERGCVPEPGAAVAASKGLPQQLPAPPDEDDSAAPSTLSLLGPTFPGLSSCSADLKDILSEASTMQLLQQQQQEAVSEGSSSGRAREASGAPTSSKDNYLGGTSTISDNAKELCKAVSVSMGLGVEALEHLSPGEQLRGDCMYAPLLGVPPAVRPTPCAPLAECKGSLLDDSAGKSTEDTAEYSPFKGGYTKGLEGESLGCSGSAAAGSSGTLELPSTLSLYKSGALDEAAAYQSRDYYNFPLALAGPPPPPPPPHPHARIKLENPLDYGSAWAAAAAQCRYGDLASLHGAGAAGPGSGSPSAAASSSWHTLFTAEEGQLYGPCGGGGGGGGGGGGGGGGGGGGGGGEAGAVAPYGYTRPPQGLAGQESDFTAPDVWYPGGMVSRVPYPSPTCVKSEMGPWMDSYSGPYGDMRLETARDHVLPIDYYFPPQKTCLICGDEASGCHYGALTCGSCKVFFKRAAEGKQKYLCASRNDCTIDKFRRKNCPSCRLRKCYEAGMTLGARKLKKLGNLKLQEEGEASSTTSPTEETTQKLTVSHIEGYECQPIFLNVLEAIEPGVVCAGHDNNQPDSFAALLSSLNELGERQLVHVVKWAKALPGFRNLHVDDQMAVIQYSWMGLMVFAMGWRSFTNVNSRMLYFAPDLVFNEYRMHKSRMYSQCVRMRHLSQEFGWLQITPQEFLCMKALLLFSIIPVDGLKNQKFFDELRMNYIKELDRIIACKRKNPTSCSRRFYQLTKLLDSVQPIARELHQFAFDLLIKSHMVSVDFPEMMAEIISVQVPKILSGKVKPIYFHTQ
From the text: The DNA-binding domain is an attractive target for inhibition of AR dimerization and/or DNA binding. In silico computational drug discovery methods were used to conduct a virtual screen of >3 million purchasable lead-like compounds from the ZINC database (Irwin, J. et al.^11) to identify potential DBD binders. The in silico methods included large-scale docking, in-site rescoring and consensus voting procedures. It will be understood by a person of skill that COOH and NR2 may include the corresponding ions, for example carboxylate ions and ammonium ions, respectively. Alternatively, where the ions are shown, a person of skill in the art will appreciate that the counter ion may also be present. Furthermore, it will be appreciated by a person of skill that other moieties may include the corresponding ions, and where the ions are shown, a person of skill in the art will appreciate that the counter ion may also be present. […] Where the % inhibition, eGFP IC50 or the PSA IC50 has no value given, this may be because no measurement was taken or the value was not calculated, in the case of the % inhibition. In vitro identification of AR inhibitors targeting AR DBD The selected compounds were assessed with a non-destructive eGFP assay that quantifies levels of AR transcriptional activity, were identified (table below).
1. Cell Culture: LNCaP and PC3 human prostate cancer cells were obtained from American Type Culture Collection (ATCC, Manassas, Va.) and grown in RPMI 1640 medium supplemented with 5% fetal bovine serum (FBS) (Invitrogen). The LNCaP eGFP cell line was stably transfected with an androgen-responsive probasin-derived promoter fused to an eGFP reporter (LN-ARR2PB-eGFP) using a lentiviral approach, and were grown in phenol-red-free RPMI 1640 supplemented with 5% CSS. In-house developed MDV3100-resistant LNCaP cells were cultured in RPMI 1640 supplemented with 5% FBS and 10 μM MDV3100. All cells were maintained at 37° C. in 5% CO2.
2. eGFP cellular AR transcription assay: The AR transcriptional activity was assayed as previously described (Tavassoli, P., et al.^12).

in vitro = conditions: for microsomal CLint at 2 μM: pH 7.4
Protocol: Microsomal incubations were carried out in 96-well plates in 5 aliquots of 40 μL each (one for each time point). […] Control incubations were performed replacing the NADPH-cofactor system with PBS. […] Incubations were performed in duplicates. Five time points over 40 minutes had been analyzed. The reactions were stopped by adding 12 volumes of 90% acetonitrile-water to incubation aliquots, followed by protein sedimentation by centrifuging at 5500 rpm for 5 minutes. Supernatants were analyzed using the HPLC system coupled with tandem mass spectrometer. The elimination constant (kel), half-life (t1/2) and intrinsic clearance (Clint) were determined in plot of […] versus time, using linear regression analysis: […]

| Structure (SMILES) | IC50 [1] [nM] | microsomal CLint at 2 μM (in vitro; human, microsomes) [µL/min/mg] | other results |
| --- | --- | --- | --- |
| Brc1cn(-c2csc(N3C[C@@H]4C[C@H]3CO4)n2)c(Br)n1 [Example 11, (1S,4S)-5-[4-(2,4-dibromoimidazol-1-yl)thiazol-2-yl]-2-oxa-5-azabicyclo[2.2.1]heptane] | 1180 | – | – |
| Brc1ncn(-c2csc(N3C[C@@H]4C[C@H]3CO4)n2)c1Br [Example 12, (1S,4S)-5-[4-(4,5-dibromoimidazol-1-yl)thiazol-2-yl]-2-oxa-5-azabicyclo[2.2.1]heptane] | 1320 | – | – |
| Brc1cn(-c2csc(N3C[C@H]4CC[C@@H](C3)O4)n2)c(Br)n1 [Example 13, (1S,5R)-3-[4-(2,4-dibromoimidazol-1-yl)thiazol-2-yl]-8-oxa-3-azabicyclo[3.2.1]octane] | 110 | – | – |
| Brc1cn(-c2csc(N3CCOCC3C3CC3)n2)c(Br)n1 (stereo not drawn) [Example 14, 3-cyclopropyl-4-[4-(2,4-dibromoimidazol-1-yl)thiazol-2-yl]morpholine] | 120 | – | – |
| CCC1COCCN1c1nc(-n2cc(Br)nc2Br)cs1 (stereo not drawn) [Example 15, 4-[4-(2,4-dibromoimidazol-1-yl)thiazol-2-yl]-3-ethyl-morpholine] | 130 | 51 | – |
| CSc1nc(Br)cn1-c1csc(N2[C@@H]3CC[C@H]2COC3)n1 [Example 16, (1R,5S)-8-[4-(4-bromo-2-methylsulfanyl-imidazol-1-yl)thiazol-2-yl]-3-oxa-8-azabicyclo[3.2.1]octane] | 140 | – | – |
| CC1CN(c2nc(-n3cc(Br)nc3Br)cs2)C(C)CO1 (stereo not drawn) [Example 17, 4-[4-(2,4-dibromoimidazol-1-yl)thiazol-2-yl]-2,5-dimethyl-morpholine] | 190 | 41 | – |
| Brc1cn(-c2csc(N3CCOC4(CCCC4)C3)n2)c(Br)n1 [Example 18, 9-[4-(2,4-dibromoimidazol-1-yl)thiazol-2-yl]-6-oxa-9-azaspiro[4.5]decane] | 200 | 100 | "No cofactor" control: role of CYP450 in metabolism (in vitro; NADPH-cofactor system replaced with PBS): not determined just by CYP450 activity; metabolic stability in human hepatic microsomal test system (in words) (in vitro; human hepatic microsomes): low stability |
| Clc1ncn(-c2csc(N3[C@@H]4CC[C@H]3COC4)n2)c1Cl [Example 19, (1R,5S)-8-[4-(4,5-dichloroimidazol-1-yl)thiazol-2-yl]-3-oxa-8-azabicyclo[3.2.1]octane] | 320 | 42 | – |
| Clc1ncn(-c2csc(N3C[C@H]4CC[C@@H](C3)O4)n2)c1Cl [Example 20, (1S,5R)-3-[4-(4,5-dichloroimidazol-1-yl)thiazol-2-yl]-8-oxa-3-azabicyclo[3.2.1]octane] | 250 | 40 | – |
| Clc1ncn(-c2csc(N3C[C@H]4CC[C@@H](C3)O4)n2)c1Br [Example 21, (1R,5S)-3-[4-(5-bromo-4-chloro-imidazol-1-yl)thiazol-2-yl]-8-oxa-3-azabicyclo[3.2.1]octane] | 300 | 6 | metabolic stability in human hepatic microsomal test system (in words) (in vitro; human, microsomes): high metabolic stability |
| CC1CN(c2nc(-n3cc(Br)nc3Br)cs2)CCO1 (stereo not drawn) [Example 22, 4-[4-(2,4-dibromoimidazol-1-yl)thiazol-2-yl]-2-methyl-morpholine] | 400 | 52 | – |
| FC(F)(F)C1CN(c2nc(-n3cc(Br)nc3Br)cs2)CCO1 (stereo not drawn) [Example 25, 4-[4-(2,4-dibromoimidazol-1-yl)thiazol-2-yl]-2-(trifluoromethyl)morpholine] | 1700 | – | – |
| Brc1cn(-c2csc(N3CCOC4CCCC43)n2)c(Br)n1 (stereo not drawn) [Example 26, 4-[4-(2,4-dibromoimidazol-1-yl)thiazol-2-yl]-3,4a,5,6,7,7a-hexahydro-2H-cyclopenta[b][1,4]oxazine] | 1530 | – | – |
| Brc1cn(-c2csc(N3CC4CC3CO4)n2)c(Br)n1 (stereo not drawn) [Example 27, 5-[4-(2,4-dibromoimidazol-1-yl)thiazol-2-yl]-2-oxa-5-azabicyclo[2.2.1]heptane] | 1610 | – | – |
| Brc1cn(-c2csc(N3CCOC4(CCOCC4)C3)n2)c(Br)n1 [Example 28, 4-[4-(2,4-dibromoimidazol-1-yl)thiazol-2-yl]-1,9-dioxa-4-azaspiro[5.5]undecane] | 3120 | – | – |
| Brc1cn(-c2csc(N3CCOC4CCCCC43)n2)c(Br)n1 (stereo not drawn) [Example 29, 4-[4-(2,4-dibromoimidazol-1-yl)thiazol-2-yl]-2,3,4a,5,6,7,8,8a-octahydrobenzo[b][1,4]oxazine] | 3150 | – | – |
| CC(C)C1CN(c2nc(-n3cc(Br)nc3Br)cs2)CCO1 (stereo not drawn) [Example 30, 4-[4-(2,4-dibromoimidazol-1-yl)thiazol-2-yl]-2-isopropyl-morpholine] | 6650 | – | – |
| Brc1cn(-c2csc(N3CCOC(c4ccccc4)C3)n2)c(Br)n1 (stereo not drawn) [Example 31, 4-[4-(2,4-dibromoimidazol-1-yl)thiazol-2-yl]-2-phenyl-morpholine] | 8150 | – | – |
| Brc1cn(-c2csc(N3CCOC(Cc4ccccc4)C3)n2)c(Br)n1 (stereo not drawn) [Example 32, 2-benzyl-4-[4-(2,4-dibromoimidazol-1-yl)thiazol-2-yl]morpholine] | 27400 | – | – |
| Brc1cn(-c2csc(N3CCOC(c4cccs4)C3)n2)c(Br)n1 (stereo not drawn) [Example 33, 4-[4-(2,4-dibromoimidazol-1-yl)thiazol-2-yl]-2-(2-thienyl)morpholine] | 170 | – | – |
| CC(C)(C)C1CN(c2nc(-n3cc(Br)nc3Br)cs2)CC(C(C)(C)C)O1 (stereo not drawn) [Example 34, 2,6-ditert-butyl-4-[4-(2,4-dibromoimidazol-1-yl)thiazol-2-yl]morpholine] | – | – | eGFP IC50 [1]: inact. |
| Clc1ncn(-c2csc(N3CCOCC3)n2)c1Br [Example 44, 4-[4-(5-bromo-4-chloro-imidazol-1-yl)thiazol-2-yl]morpholine] | – | 196 | – |
| Clc1c(Br)ncn1-c1csc(N2CCOCC2)n1 [Example 45, 4-[4-(4-bromo-5-chloro-imidazol-1-yl)thiazol-2-yl]morpholine] | – | 185 | – |
| Clc1cn(-c2csc(N3CCOCC3)n2)cn1 [Example 47, 4-[4-(4-chloroimidazol-1-yl)thiazol-2-yl]morpholine] | 970 | – | – |
| Brc1cn(-c2csc(N3CCOCC3)n2)cn1 [Example 48, 4-[4-(4-bromoimidazol-1-yl)thiazol-2-yl]morpholine] | – | 81 | – |
| N#Cc1nc(Br)cn1-c1csc(N2CCOCC2)n1 [Example 51, 4-bromo-1-(2-morpholinothiazol-4-yl)imidazole-2-carbonitrile] | 1600 | – | – |
| Cc1ncn(-c2csc(N3CCOCC3)n2)c1C [Example 52, 4-[4-(4,5-dimethylimidazol-1-yl)thiazol-2-yl]morpholine] | 3650 | – | – |
| Brc1ncn(-c2csc(N3CCOC4(COC4)C3)n2)c1Br [Example 65, 8-(4-(4,5-dibromo-1H-imidazol-1-yl)thiazol-2-yl)-2,5-dioxa-8-azaspiro[3.5]nonane] | 4470 | – | – |
